Legend:
human GR = target: T1, human GR (Homo sapiens, UniProt P04150); test: GR agonist potency, MMTV-luciferase reporter in SW1353 cells; format: cell-based; conditions: human chondrosarcoma cell-line SW1353 stably transfected with MMTV-luciferase reporter; approx. 18 hours; data as percentage of 1 μM dexamethasone positive control
T1 construct: SW1353 naturally expresses human GR; endogenous in cells; host or cells: human chondrosarcoma cell-line SW1353 stably transfected with an MMTV-luciferase reporter construct
T1 sequence (P04150 1-777): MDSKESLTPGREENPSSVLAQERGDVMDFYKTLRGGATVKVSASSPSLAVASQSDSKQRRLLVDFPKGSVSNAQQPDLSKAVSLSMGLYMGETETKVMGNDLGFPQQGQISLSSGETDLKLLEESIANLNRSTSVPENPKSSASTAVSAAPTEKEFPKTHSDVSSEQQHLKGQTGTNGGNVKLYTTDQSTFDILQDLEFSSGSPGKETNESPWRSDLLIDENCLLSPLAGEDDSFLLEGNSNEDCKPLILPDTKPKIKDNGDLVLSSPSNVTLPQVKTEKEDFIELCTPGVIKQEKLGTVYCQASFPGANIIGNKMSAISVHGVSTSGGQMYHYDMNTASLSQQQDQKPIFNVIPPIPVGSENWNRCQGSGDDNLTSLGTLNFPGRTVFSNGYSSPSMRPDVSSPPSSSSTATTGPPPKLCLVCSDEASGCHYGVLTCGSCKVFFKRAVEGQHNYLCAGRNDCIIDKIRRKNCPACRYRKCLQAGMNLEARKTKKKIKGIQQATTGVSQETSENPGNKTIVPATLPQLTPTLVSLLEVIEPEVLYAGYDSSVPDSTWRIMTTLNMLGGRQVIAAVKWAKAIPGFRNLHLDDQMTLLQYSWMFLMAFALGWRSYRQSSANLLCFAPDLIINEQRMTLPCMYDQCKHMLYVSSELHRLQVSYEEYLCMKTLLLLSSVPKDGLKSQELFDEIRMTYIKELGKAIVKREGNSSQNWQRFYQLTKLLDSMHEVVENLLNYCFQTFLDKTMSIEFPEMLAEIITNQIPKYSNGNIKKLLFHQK
Protocol: Glucococorticoid receptor (GR) agonist potency was determined in the human chondrosarcoma cell-line SW1353 stably transfected with an MMTV-luciferase reporter construct. SW1353 naturally expresses human GR, which on binding a glucocorticoid agonist activates glucocorticoid response elements within the MMTV promoter, driving expression of the luciferase gene.
Frozen SW1353 cells were revived in DMEM medium, without sodium pyruvate or phenol red, supplemented with 2 mM L-glutamine, 1 μg/ml insulin, 2 mg/ml lactalbumin hydrosylate and 0.5 μg/ml ascorbate. Cells were seeded at approximately 5000 cells/well (35 μl/well) in 384-well clear bottom, tissue culture treated plates. Steroid dose-response dilutions were prepared in steroid diluent (PBS containing 2.5% (v/v) DMSO and 0.05% (v/v) pluronic detergent) and 5 μl added to each well. The volume was made up to 50 μl per well with steroid diluent. Positive control wells contained 1 μM dexamethasone. Plates were incubated for approximately 18 hours at 37° C. in an air/5% CO2 atmosphere in a humidified incubator before Britelite reagent (10 μl; Perkin-Elmer) was added to each well. Each plate was incubated for 2 minutes in the dark and luminescence quantified using a LJL Biosystems Analyst luminometer. Data for test compounds (expressed as percentage of the dexamethasone positive control) were used to construct dose response curves from which EC50 values were estimated.

[1] = Inhibition of TNF-α release from LPS stimulated isolated human PBMC; format: cell-based; conditions: Homo sapiens, PBMC, read-out: IC50 (nM) for inhibition of TNF-α release
Protocol: The anti-inflammatory activity of the compounds against human leukocytes in vitro was also evaluated by determining inhibition of tumour necrosis factor-α (TNF-α) release from lipopolysaccharide (LPS) stimulated isolated human peripheral mononuclear cells (PBMC).
Peripheral venous blood from healthy, non-medicated donors was collected using ethylenediaminetetraacetic acid (EDTA) as the anti-coagulant. For PBMC preparation, samples of blood were diluted 1:1 with sterile phosphate buffered saline and then separated using ACCUSPIN™ System-Histopaque®-1077 tubes (Sigma-Aldrich, St Louis, Mo.), centrifuged at 400 g for 35 minutes. Buffy coat cells were removed into PBS, centrifuged at 200 g for 10 minutes and re-suspended in PBMC assay buffer (Hanks Balanced Salt Solution, 0.28% [w/v] 4-[2-hydroxyethyl]-1-piperazineethanesulfonic acid [HEPES], 0.01% [w/v] low-endotoxin bovine serum albumin [BSA]. A differential white cell count was performed and PBMC's diluted to 1×10^6 lymphocytes per ml in PBMC assay buffer.
Test compounds were dissolved in DMSO and diluted in PBMC assay buffer (final DMSO concentration 1%) to cover an appropriate concentration range, e.g 0.001 nM to 10000 nM. Samples of test compound solution or vehicle (20 μl) were added into 96-well tissue culture treated plates (Corning) and PBMC (160 μl) added to each well. The assay mixtures were incubated at 37° C. for 1 h in a humidified incubator containing an atmosphere of air supplemented with 5% CO2 before adding LPS (20 μl of 100 ng/ml for PBMC). Plates were returned to the incubator for a further 18 hours, and then centrifuged before recovery of samples of supernatant. TNF-α in the samples was determined using an enzyme-linked immunosorbent assay (ELISA) (Invitrogen kit no CHC-1754; Invitrogen Carlsbad, Calif.) and following the manufacturers instructions. Dose response curves were constructed from which IC50 values were calculated.

SMILES	EC50 (human GR) [nM]	IC50 [1] [nM]
C[C@]12C=CC(=O)C=C1CC[C@H]1[C@@H]3CC[C@](OC(=O)c4ccc(Oc5ccc(O)c(Cl)c5)cc4)(C(=O)OCC#N)[C@@]3(C)C[C@H](O)[C@@]12F [Example 37, cyanomethyl (11beta,17alpha)-17-{[4-(3-chloro-4-hydroxybhenoxy)-benzoyl]oxy}-9-fluoro-11-hydroxy-3-oxoandrosta-1,4-diene-17-carboxylate]	39.7	0.201
CSc1ccc(Sc2ccc(C(=O)O[C@]3(C(=O)OCF)[C@H](C)C[C@H]4[C@@H]5C[C@H](F)C6=CC(=O)C=C[C@]6(C)[C@@]5(F)[C@@H](O)C[C@@]43C)cc2)cc1 [Example 50, Fluoromethyl (6alpha,11beta,16alpha, 17alpha)-6,9-difluoro-11-hydroxy-16-methyl-17-[(4-{[4-(methylthio)phenyl]thio}benzoyl)oxy]-3-oxoandrosta-1,4-diene-17-carboxylate]	11.5	0.052
C[C@@H]1C[C@H]2[C@@H]3C[C@H](F)C4=CC(=O)C=C[C@]4(C)[C@@]3(F)[C@@H](O)C[C@]2(C)[C@@]1(OC(=O)c1ccc(Oc2ccc(O)c(Cl)c2)cc1)C(=O)OCF [Example 44, Fluoromethyl (6alpha,11beta,16alpha,17alpha)-17-{[4-(3-chloro-4-hydroxyphenoxy)benzoyl]oxy}-6,9-difluoro-11-hydroxy-16-methyl-3-oxoandrosta-1,4-diene-17-carboxylate]	6.7	0.029
C[C@@H]1C[C@H]2[C@@H]3C[C@H](F)C4=CC(=O)C=C[C@]4(C)[C@@]3(F)[C@@H](O)C[C@]2(C)[C@@]1(OC(=O)c1ccc(Oc2ccc(O)c(Cl)c2)cc1)C(=O)OCC#N [Example 45, cyanomethyl(6alpha,11beta,16alpha,17alpha)-17-{[4-(3-chloro-4-hydroxyphenoxy)benzoyl]oxy}-6,9-difluoro-11-hydroxy-16-methyl-3-oxoandrosta-1,4-diene-17-carboxylate]	21.3	0.155
CSc1cccc(Sc2ccc(C(=O)O[C@]3(C(=O)OCF)[C@H](C)C[C@H]4[C@@H]5C[C@H](F)C6=CC(=O)C=C[C@]6(C)[C@@]5(F)[C@@H](O)C[C@@]43C)cc2)c1 [Example 53]	11.8	0.086
C[C@]12C=CC(=O)C=C1CC[C@H]1[C@@H]3CC[C@](OC(=O)c4ccc(Oc5ccccc5)cc4)(C(=O)SCC#N)[C@@]3(C)C[C@H](O)[C@@]12F [Example 29, (11beta,17alpha)-17-{[(cyanomethyl)-thio]carbonyl}-9-fluoro-11-hydroxy-3-oxoandrosta-1,4-dien-17-yl 4-phenoxybenzoate]	78.4	0.156
C[C@]12C=CC(=O)C=C1[C@@H](F)C[C@H]1[C@@H]3CC[C@](OC(=O)c4ccc(Cc5ccccc5)cc4)(C(=O)OCC#N)[C@@]3(C)C[C@H](O)[C@@]12F [Example 1, cyanomethyl(6alpha,11beta,17alpha)-17-[(4-benzylbenzoyl)oxy]-6,9-difluoro-11-hydroxy-3-oxoandrosta-1,4-diene-17-carboxylate]	22.3	0.095
C[C@]12C=CC(=O)C=C1CC[C@H]1[C@@H]3CC[C@](OC(=O)c4ccc(Sc5ccc(O)c(Cl)c5)cc4)(C(=O)SCC#N)[C@@]3(C)C[C@H](O)[C@@]12F [Example 13, (11beta,17alpha)-17-{[(cyanomethyl)thio]carbonyl}-9-fluoro-11-hydroxy-3-oxoandrosta-1,4-dien-17-yl 4-[(3-chloro-4-hydroxyphenyl)thio]benzoate]	80.9	0.799
C[C@@H]1C[C@H]2[C@@H]3CCC4=CC(=O)C=C[C@]4(C)[C@@]3(F)[C@@H](O)C[C@]2(C)[C@@]1(OC(=O)c1ccc(Oc2ccc(O)c(Cl)c2)cc1)C(=O)SCF [Example 43, (11beta,16alpha,17alpha)-9-fluoro-17-{[(fluoromethyl)thio]carbonyl}-11-hydroxy-16-methyl-3-oxoandrosta-1,4-dien-17-yl 4-(3-chloro-4-hydroxyphenoxy)benzoate]	26.4	0.06
C[C@]12C=CC(=O)C=C1CC[C@H]1[C@@H]3CC[C@](OC(=O)c4ccc(Sc5ccccc5)cc4)(C(=O)SCC#N)[C@@]3(C)C[C@H](O)[C@@]12F [Example 28, (11beta,17alpha)-17-{[(cyanomethyl)thio]carbonyl}-9-fluoro-11-hydroxy-3-oxoandrosta-1,4-dien-17-yl 4-(phenylthio)benzoate]	37.3	0.231
CSc1cccc(Sc2ccc(C(=O)O[C@]3(C(=O)OCC#N)CC[C@H]4[C@@H]5CCC6=CC(=O)C=C[C@]6(C)[C@@]5(F)[C@@H](O)C[C@@]43C)cc2)c1 [Example 10, cyanomethyl (11beta,17alpha)-9-fluoro-11-hydroxy-17-[(4-{[3-(methylthio)-phenyl]thio}benzoyl)oxy]-3-oxoandrosta-1,4-diene-17-carboxylate]	62.1	0.826
C[C@]12C=CC(=O)C=C1CC[C@H]1[C@@H]3CC[C@](OC(=O)c4ccc(Sc5ccccc5O)cc4)(C(=O)OCC#N)[C@@]3(C)C[C@H](O)[C@@]12F [Example 35, cyanomethyl (11beta,17alpha)-9-fluoro-11-hydroxy-17-({4-[(2-hydroxyphenyl)thio]benzoyl}oxy)-3-oxoandrosta-1,4-diene-17-carboxylate]	75.2	0.099
CSc1cccc(Sc2ccc(C(=O)O[C@]3(C(=O)SCF)CC[C@H]4[C@@H]5CCC6=CC(=O)C=C[C@]6(C)[C@@]5(F)[C@@H](O)C[C@@]43C)cc2)c1 [Example 23, (11beta,17alpha)-9-fluoro-17-{[(fluoromethyl)thio]carbonyl}-11-hydroxy-3-oxoandrosta-1,4-dien-17-yl 4-{[3-(methylthio)phenyl]thio}benzoate]	52.5	0.536
C[C@]12C=CC(=O)C=C1CC[C@H]1[C@@H]3CC[C@](OC(=O)c4ccc(OCc5ccccc5)cc4)(C(=O)CO)[C@@]3(C)C[C@H](O)[C@@]12F [Example 32, (11beta)-9-fluoro-11,21-dihydroxy-3,20-dioxopregna-1,4-dien-17-yl 4-(benzyloxy)benzoate]	36	0.506
C[C@@H]1C[C@H]2[C@@H]3C[C@H](F)C4=CC(=O)C=C[C@]4(C)[C@@]3(F)[C@@H](O)C[C@]2(C)[C@@]1(OC(=O)c1ccc(Oc2ccc(Cl)c(O)c2)cc1)C(=O)OCF [Example 41, Fluoromethyl (6alpha,11beta,16alpha,17alpha)-17-{[4-(4-chloro-3-hydroxyphenoxy)benzoyl]oxy}-6,9-difluoro-11-hydroxy-16-methyl-3-oxoandrosta-1,4-diene-17-carboxylate]	7.73	0.032

From patent publication US20100303758A1, “Novel Glucocorticoid Receptor Agonists” (priority 2009, published 2010)
